Experimental data taken from US20030186939A1, “Omega-cycloalkyl-prostaglandin E2 derivatives” (priority 1997, published 2003).

How the values were obtained:
Conditions in all cases: competition of 2.5 nM 3H-PGE2 binding, CHO cell membrane fraction; more polar compounds
[1] = molecular target: T1, mouse EP1 (Mus musculus, UniProt P35375); assay: Binding assay using expression cell of prostanoide receptor subtype (EP1)
T1 construct: expressed in transfected cells; host or cells: CHO cells (membrane fraction)
T1 sequence (P35375 1-405): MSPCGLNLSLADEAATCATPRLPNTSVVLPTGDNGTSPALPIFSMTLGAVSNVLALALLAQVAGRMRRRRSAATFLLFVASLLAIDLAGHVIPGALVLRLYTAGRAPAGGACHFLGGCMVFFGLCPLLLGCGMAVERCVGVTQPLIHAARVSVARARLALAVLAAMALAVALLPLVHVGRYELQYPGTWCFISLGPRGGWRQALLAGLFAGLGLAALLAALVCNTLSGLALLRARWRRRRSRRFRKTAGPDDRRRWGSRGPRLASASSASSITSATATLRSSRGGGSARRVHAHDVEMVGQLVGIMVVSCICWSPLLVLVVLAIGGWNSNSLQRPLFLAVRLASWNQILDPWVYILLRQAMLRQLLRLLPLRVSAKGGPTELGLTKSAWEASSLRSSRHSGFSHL
Description: (§1) The preparation of membrane fraction was carried out according to the method of Sugimoto et. al. [J. Biol. Chem. 267, 6463-6466 (1992)], using expression CHO cell of the prostanoide receptor subtype (mouse EP1, EP2, EP3α, EP4).
(§2) The standard assay mixture contained membrane fraction (0.5 mg/ml), and [^3H]-PGE2 in a final volume of 200 μl was incubated for 1 hour at room temperature. The reaction was terminated by the addition of 3 ml of ice-cold buffer. The mixture was rapidly filtered through a GF/B glass filter. The radioactivity associated with the filter was measured by liquid scintillation counting.
(§3) Kd and Bmax values were determined from Scatchard plots [Ann. N.Y. Acad. Sci., 51, 660 (1949)]. Non-specific binding was calculated as the bound in the presence of an excess (2.5 μM) of unlabeled PGE2. In the experiment for competition of specific ^3H-PGE2 binding by the compounds of the present invention, 2.5 nM of ^3H-PGE2 and various concentrations of compounds of the present invention were added. The following buffer was used in all reactions.
(§4) Buffer: 10 mM potassium phosphate (pH 6.0), 1 mM EDTA, 10 mM MgCl2, 0.1 M NaCl
(§5) In the example compounds, all of values were shown the more polar compounds.
(§6) The dissociation constant (Ki) of each compound was calculated by the following equation.

[2] = molecular target: T2, mouse EP2 (Mus musculus, UniProt Q62053); assay: Binding assay using expression cell of prostanoide receptor subtype (EP2)
T2 construct: expressed in transfected cells; host or cells: CHO cells (membrane fraction)
T2 sequence (Q62053 whole entry): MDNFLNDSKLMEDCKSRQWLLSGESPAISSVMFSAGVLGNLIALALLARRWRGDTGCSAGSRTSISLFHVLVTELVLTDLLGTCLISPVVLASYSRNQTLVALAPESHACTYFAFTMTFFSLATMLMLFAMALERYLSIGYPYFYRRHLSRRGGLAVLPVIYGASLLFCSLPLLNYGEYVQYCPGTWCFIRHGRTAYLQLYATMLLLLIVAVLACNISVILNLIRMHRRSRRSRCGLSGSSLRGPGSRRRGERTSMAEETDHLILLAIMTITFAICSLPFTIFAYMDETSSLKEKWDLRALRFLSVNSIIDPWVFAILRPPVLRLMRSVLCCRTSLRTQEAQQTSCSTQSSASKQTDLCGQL
Description: as §2
(§7) Kd and Bmax values were determined from Scatchard plots [Ann. […] The following buffer was used in all reactions.
as §4, §6

[3] = molecular target: T3, mouse EP3α (Mus musculus, UniProt P30557); assay: Binding assay using expression cell of prostanoide receptor subtype (EP3α)
T3 construct: expressed in transfected cells; host or cells: CHO cells (membrane fraction)
T3 sequence (P30557 1-365): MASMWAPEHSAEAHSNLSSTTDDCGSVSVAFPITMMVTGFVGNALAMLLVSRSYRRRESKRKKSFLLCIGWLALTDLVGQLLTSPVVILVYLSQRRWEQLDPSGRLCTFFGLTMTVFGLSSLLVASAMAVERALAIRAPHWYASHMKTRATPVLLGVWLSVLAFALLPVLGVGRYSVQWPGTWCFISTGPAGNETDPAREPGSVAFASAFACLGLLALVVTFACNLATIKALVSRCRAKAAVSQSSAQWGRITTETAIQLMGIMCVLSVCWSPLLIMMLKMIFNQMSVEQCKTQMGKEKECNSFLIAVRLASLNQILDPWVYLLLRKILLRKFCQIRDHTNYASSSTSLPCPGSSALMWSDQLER
Description: as §1, §2, §3, §4, §5, §6

[4] = molecular target: T4, mouse EP4 (Mus musculus, UniProt P32240); assay: Binding assay using expression cell of prostanoide receptor subtype (EP4)
T4 construct: expressed in transfected cells; host or cells: CHO cells (membrane fraction)
T4 sequence (P32240 whole entry): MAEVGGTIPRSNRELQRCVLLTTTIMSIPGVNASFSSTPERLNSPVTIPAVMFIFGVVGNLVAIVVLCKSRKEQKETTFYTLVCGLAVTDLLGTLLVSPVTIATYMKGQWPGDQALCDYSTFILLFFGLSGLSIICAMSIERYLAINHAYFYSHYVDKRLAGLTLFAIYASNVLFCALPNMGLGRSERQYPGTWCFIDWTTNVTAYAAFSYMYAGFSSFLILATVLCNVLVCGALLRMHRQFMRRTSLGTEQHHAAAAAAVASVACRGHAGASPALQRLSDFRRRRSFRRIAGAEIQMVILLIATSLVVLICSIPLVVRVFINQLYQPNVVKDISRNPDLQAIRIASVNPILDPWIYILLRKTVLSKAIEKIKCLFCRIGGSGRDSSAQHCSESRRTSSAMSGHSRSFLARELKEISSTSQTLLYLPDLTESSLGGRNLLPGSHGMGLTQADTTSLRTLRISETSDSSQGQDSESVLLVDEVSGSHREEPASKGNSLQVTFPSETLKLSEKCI
Description: as §2, §7, §4, §6

Row | Structure (SMILES) | Ki [1] [µM] | Ki [2] [µM] | Ki [3] [µM] | Ki [4] [µM]
1 | O=C(O)CCC/C=C\C[C@@H]1[C@@H](/C=C/CC(O)C2(CC3CC3)CCC2)[C@H](O)C[C@H]1Cl (stereo partly drawn) [Example 17(2), (5Z, 9β, 11α, 13E)-17, 17-propano-19, 20-methano-11, 16-dihydroxy-9-chloroprosta-5, 13-dienoic acid] | 1.1 | 0.0009 | 2.7 | 0.4
2 | C=CCC1(C(O)C/C=C/[C@@H]2[C@@H](C/C=C\CCCC(=O)OC)[C@H](Cl)C[C@H]2O)CCC1 (stereo partly drawn) [Example 16(1), (5Z, 9β, 11α, 13E)-17, 17-propano-11, 16-dihydroxy-9-chloroprosta-5, 13, 19-trienoic acid•methylester] | > 10 | 0.096 | > 10 | > 10
3 | CCCC1(C(O)C/C=C/[C@H]2[C@H](O)CC(=O)[C@@H]2C/C=C\CCCC(=O)O)CCC1 (stereo partly drawn) [compound 4] | > 10 | 0.092 | > 10 | > 10
4 | CCC1(C(O)C/C=C/[C@H]2[C@H](O)CC(=O)[C@@H]2C/C=C\CCCC(=O)O)CCC1 (stereo partly drawn) [Example 4(10), (5Z, 11α, 13E)-11,16-dihydroxy-9-oxo-17,17-propano-20-norprosta-5,13-dienoic acid] | > 10 | 0.03 | > 10 | > 10
5 | C=C1C[C@@H](O)[C@H](/C=C/CC(O)C2(CCC)CCC2)[C@H]1C/C=C\CCCC(=O)O (stereo partly drawn) [compound 12] | > 10 | 0.37 | > 10 | > 10
6 | C=CCC1(C(O)C/C=C/[C@H]2[C@H](O)CC(=O)[C@@H]2C/C=C\CCCC(=O)O)CCC1 (stereo partly drawn) [Example 4(5), (5Z, 11α, 13E)-11,16-dihydroxy-9-oxo-17,17-propanoprosta-5, 13-19-trienoic acid] | > 10 | 0.032 | > 10 | > 10
7 | C=CC1(C(O)C/C=C/[C@H]2[C@H](O)CC(=O)[C@@H]2C/C=C\CCCC(=O)O)CCC1 (stereo partly drawn) [Example 6(5), (5Z, 11α, 13E)-17,17-propano-11,16-dihydroxy-9-oxo-20-norprosta-5,13,18-trienoic acid] | > 10 | 0.076 | > 10 | > 10
8 | CCCC1(C(O)C/C=C/[C@H]2[C@H](OC)CC(=O)[C@@H]2C/C=C\CCCC(=O)O)CCC1 (stereo partly drawn) [compound 10] | > 10 | 0.034 | > 10 | > 10
9 | C=CCCC1(C(O)C/C=C/[C@H]2[C@H](O)CC(=O)[C@@H]2C/C=C\CCCC(=O)O)CCC1 (stereo partly drawn) [Example 6(1), (5Z, 11α, 13E)-17,17-propano-20,20-methylene-11,16-dihydroxy-9-oxoprosta-5,13-dienoic acid] | > 10 | 0.036 | > 10 | > 10
